{"source": "patent US10626113B2", "about": "“Phosphodiesterase inhibitors and uses thereof” (THE TRUSTEES OF COLUMBIA UNIVERSITY IN THE CITY OF NEW YORK, priority 2012, dated 2020)", "key": {"[1]": {"target": "PDE5 (Homo sapiens (Human), UniProt O76074)", "experiment": "PDE5 inhibition assay (BPS PDE assay kit, fluorescence polarization)", "format": "biochemical", "protocol": "Materials and Methods: PDE5 inhibition was assayed at BPS Bioscience (San Diego, Calif.) using BPS PDE assay kits (BPS Catalog number 60300, enzyme lot 090810). Test compounds were supplied as liquid solutions of 10 mM concentration in DMSO. Sildenafil, used as a standard was dissolved in DMSO. Intermediate dilutions were 10% DMSO in PDE assay buffer and tests at ranges from 0.1 to 100 nM. 0.1 ng of enzyme was used per reaction, and the substrate was 100 nM FAM-cGMP.\n(§1) Assay conditions: A series of dilutions of the test compounds were prepared with 10% DMSO in assay buffer and 5 μl of the dilution was added to a 50 μl reaction so that the final concentration of DMSO is 1% in all of reactions. The enzymatic reactions were conducted at room temperature for 60 minutes in a 50 μl mixture containing PDE assay buffer, 100 nM FAM-cAMP or 100 nM FAM-cGMP, a PDE enzyme, and the test compound. After the enzymatic reaction, 100 μl of a binding solution (1:100 dilution of the binding agent with the binding agent diluent) was added to each reaction and the reaction was performed at room temperature for 60 minutes. Fluorescence intensity was measured at an excitation of 485 nm and an emission of 528 nm using a Tecan Infinite M1000 microplate reader.\n(§2) Data analysis: PDE activity assays were performed in duplicate at each concentration. Fluorescence intensity is converted to fluorescence polarization using the Tecan Magellan6 software. The fluorescence polarization data were analyzed using the computer software, Graphpad Prism. The fluorescence polarization (FPt) in absence of the compound in each data set was defined as 100% activity. In the absence of PDE and the compound, the value of fluorescent polarization (FPb) in each data set was defined as 0% activity. The percent activity in the presence of the compound was calculated according to the following equation: % activity=(FP−FPb)/(FPt−FPb)×100%, where FP=the fluorescence polarization in the presence of the compound.\nThe values of % activity versus a series of compound concentrations were then plotted using non-linear regression analysis of Sigmoidal dose-response curve generated with the equation Y=B+(T−B)/1+10^((LogEC50-X)×Hill Slope), where Y=percent activity, B=minimum percent activity, T=maximum percent activity, X=logarithm of compound and Hill Slope=slope factor or Hill coefficient. The IC50 value was determined by the concentration causing a half-maximal percent activity."}, "[2]": {"tested_on": "PDE6", "experiment": "PDE6 inhibition assay (fluorescence polarization)", "format": "biochemical", "settings": "Table 1", "protocol": "as §1, with “The” for “Assay conditions: A series of dilutions of the test compounds were prepared with 10% DMSO in assay buffer and 5 μl of the dilution was added to a 50 μl reaction so that the final concentration of DMSO is 1% in all of reactions. The”\nas §2, with “Fluorescence” for “Data analysis: PDE activity assays were performed in duplicate at each concentration. Fluorescence”\nThe IC50 value was determined by the concentration causing a half-maximal percent activity."}, "[3]": {"tested_on": "APP/PS1 mice", "experiment": "Preliminary studies with sildenafil in APP/PS1 mice", "format": "in vivo", "settings": "persist beyond the administration of the inhibitor", "protocol": "Slices from transgenic mice treated with the compound had 226.23%±6.72 potentiation compared to 164.12%±10.37 in slices from vehicle-treated transgenic mice (FIG. 3). Residual potentiation recorded during the last 5 minutes of a 2 hr recording following tetanic stimulation of the Schaffer collateral fibers at the CA3-CA1 connection."}}, "data": [{"smiles": "[2H]C([2H])(Nc1c2c(nc3ccc(C#N)cc13)CCN(C(C)=O)C2)c1ccc(OC)c(Cl)c1", "note": "[M]", "values": [{"measurement": "IC50", "setting": "[1]; Table 3", "value": 0.044, "unit": "nM"}]}, {"smiles": "COc1ccc(CNc2c3c(nc4ccc(C#N)cc24)NCCNC3=O)cc1Cl", "note": "[E, 6-[(3-chloro-4-methoxybenzyl)amino]-5-oxo-2,3,4,5-tetrahydro-1H-[1,4]diazepino[5,6-b]quinoline-8-carbonitrile]", "values": [{"measurement": "IC50", "setting": "[1]; Table 1, 100 nM FAM-cGMP", "value": 43.8, "unit": "nM"}, {"measurement": "IC50", "setting": "[2]", "value": 6620, "unit": "nM"}]}, {"smiles": "COc1ccc(CNc2c3c(nc4ccc(Br)cc24)CCNC3)cc1Cl", "note": "[F, 8-bromo-N-(3-chloro-4-methoxybenzyl)-1,2,3,4-tetrahydrobenzo[b][1,6]naphthyridin-10-amine]", "values": [{"measurement": "IC50", "setting": "[1]; Table 1, 100 nM FAM-cGMP", "value": 5.4, "unit": "nM"}]}, {"smiles": "COc1ccc(CNc2c3c(nc4ccc(Br)cc24)CCN(C)C3)cc1Cl", "note": "[A, 8-bromo-N-(3-chloro-4-methoxybenzyl)-2-methyl-1,2,3,4-tetrahydrobenzo[b][1,6]naphthyridin-10-amine]", "values": [{"measurement": "IC50", "setting": "[1]; Table 1, 100 nM FAM-cGMP", "value": 21.6, "unit": "nM"}]}, {"smiles": "COc1ccc(CNc2c3c(nc4ccc(C#N)cc24)CCNC3)cc1Cl", "note": "[G, 10-((3-chloro-4-methoxybenzyl)amino)-1,2,3,4-tetrahydrobenzo[b][1,6]naphthyridine-8-carbonitrile]", "values": [{"measurement": "IC50", "setting": "[1]; Table 1, 100 nM FAM-cGMP", "value": 1.55, "unit": "nM"}, {"measurement": "IC50", "setting": "[2]", "value": "> 100", "unit": "nM"}]}, {"smiles": "CCCc1nn(C)c2c(=O)[nH]c(-c3cc(S(=O)(=O)N4CCN(C)CC4)ccc3OCC)nc12", "note": "[sildenafil]", "values": [{"measurement": "effects on synaptic and cognitive abnormalities in APP/PS1 mice", "setting": "[3]", "value": "prolonged beneficial effects"}]}, {"smiles": "CCc1cc(C#N)cc2c(NCc3ccc(OC)c(Cl)c3)c3c(nc12)CCN(C)C3", "note": "[D, 10-[(3-chloro-4-methoxybenzyl)amino]-6-ethyl-2-methyl-1,2,3,4-tetrahydrobenzo[b][1,6]naphthyridine-8-carbonitrile]", "values": [{"measurement": "IC50", "setting": "[1]; Table 1, 100 nM FAM-cGMP", "value": 0.07, "unit": "nM"}, {"measurement": "IC50", "setting": "[2]", "value": 30, "unit": "nM"}]}]}
